The target in assay [1] is T1, BRAF^WT (Homo sapiens, UniProt P15056, A688R/F667E/I543A/I544S/I551K/K630S/K723G/L588N/L706S/L716E/P722S/Q562R/Q709R/S713E/Y673S). Put plainly: AUC sedimentation velocity. As to conditions: Figure 4b; vemurafenib 15 μM (Figure 8).
The target in a further assay is BRAF^V600E (Homo sapiens, UniProt P15056, A688R/F667E/I543A/I544S/I551K/K630S/K723G/L588N/L706S/L716E/P722S/Q562R/Q709R/S713E/V600E/Y673S). The assay is described as follows: AUC sedimentation velocity. The note with it: Figure 4c; vemurafenib 15 μM (Figure 8).
Assay [2] concerns the target T1, BRAF^WT. Put plainly: Limited proteolysis with trypsin. The note with it: 200 μM inhibitor, trypsin 30 minutes.
Another assay addresses BRAF^R506A (Homo sapiens, UniProt P15056, A688R/F667E/I543A/I544S/I551K/K630S/K723G/L588N/L706S/L716E/P722S/Q562R/Q709R/R506A/S713E/Y673S). The assay is described as follows: AUC sedimentation velocity. The note with it: TAK632 at 15-25 μM, Figure 8a.
A further assay addresses BRAF^W450A (Homo sapiens, UniProt P15056, A688R/F667E/I543A/I544S/I551K/K630S/K723G/L588N/L706S/L716E/P722S/Q562R/Q709R/S713E/W450A/Y673S). The assay is described as follows: AUC sedimentation velocity. The note with it: TAK632 at 15-25 μM, Figure 8a.
Assay [3] concerns the target T2, BRAF^R509H/R506A/W450A (Homo sapiens, UniProt P15056, A688R/F667E/I543A/I544S/I551K/K630S/K723G/L588N/L706S/L716E/P722S/Q562R/Q709R/R506A/R509H/S713E/W450A/Y673S). Put plainly: AUC sedimentation velocity. The note with it: 25 μM, Figure 8b.
In assay [4] the target is T2, BRAF^R509H/R506A/W450A. Put plainly: AUC sedimentation equilibrium. The note with it: in the presence of TAK632.
The test system of assay [5] is wild-type or mutant BRAF and CRAF. The note with it: cited from earlier work.
Assay [6] has as its target BRAF^WT (Homo sapiens, UniProt P15056). Put plainly: ELISA kinase assay, phosphorylation of GST-MEK by purified BRAF kinase domain. The assay is classed as biochemical. The note with it: Figure 5b.
Assay [7] concerns the target T1, BRAF^WT. Put plainly: Differential Scanning Calorimetry. The note with it: 37 μM protein. The assay is classed as binding.

The text below walks through data of paper PMC6540792 (Journal of medicinal chemistry, 2018).

For `CCCS(=O)(=O)Nc1ccc(F)c(C(=O)c2c[nH]c3ncc(-c4ccc(Cl)cc4)cc23)c1F` [vemurafenib], the “oligomeric state of BRAF^WT on adding inhibitor” value on BRAF^WT [1] is on record as “monomers were stabilized”. Besides, the “oligomeric state of BRAF^V600E on adding inhibitor” value on BRAF^V600E was “dimers were disrupted”. Further, the “trypsin digestion pattern of BRAF^WT” value on BRAF^WT [2] is “species A as the major band, with negligible amounts of species B and C”.
As to `N#Cc1c(Oc2ccc(F)c(NC(=O)Cc3cccc(C(F)(F)F)c3)c2)ccc2nc(NC(=O)C3CC3)sc12` [TAK632, N-{7-Cyano-6-[4-fluoro-3-({[3-(trifluoromethyl)phenyl]acetyl}amino)phenoxy]-1,3-benzothiazol-2-yl}cyclopropanecarboxamide], the “oligomeric state of BRAF^WT on adding inhibitor” value at BRAF^WT [1] was “form dimeric species”. Moreover, on BRAF^V600E, the “oligomeric state of BRAF^V600E on adding inhibitor” value is “form dimeric species”. The “trypsin digestion pattern of BRAF^WT” value on BRAF^WT [2] was “species A becomes a minor band, while species B and C become major bands”. The “oligomeric state of BRAF^R506A on adding inhibitor” value at BRAF^R506A is reported as “complete dimerization”. For the same compound, the “oligomeric state of BRAF^W450A on adding inhibitor” value on BRAF^W450A is “complete dimerization”. Also, the “oligomeric state of BRAF^R509H/R506A/W450A on adding inhibitor” value at BRAF^R509H/R506A/W450A [3] is “sediments less broadly and more closely to that of a monomer peak”. Also, the molecular weight at BRAF^R509H/R506A/W450A [4] is reported as 47,000 kDa. Also, the IC50 values result in assay [5] was “low nanomolar range”.
Take `N#Cc1c(Oc2ccc(F)c(NC(=O)Cc3cccc(C(F)(F)F)c3)c2)ccc2nc(NC(=O)COCCOCCOCCOCCOCC(=O)Nc3nc4ccc(Oc5ccc(F)c(NC(=O)Cc6cccc(C(F)(F)F)c6)c5)c(C#N)c4s3)sc12` [TAK-4-TAK]: on BRAF^WT [6], the “fold reduced potency relative to TAK632” value is recorded as roughly 12 fold.
In the case of `N#Cc1c(Oc2ccc(F)c(NC(=O)Cc3cccc(C(F)(F)F)c3)c2)ccc2nc(NC(=O)COCCOCCOCC(=O)Nc3nc4ccc(Oc5ccc(F)c(NC(=O)Cc6cccc(C(F)(F)F)c6)c5)c(C#N)c4s3)sc12` [TAK-2-TAK], at BRAF^WT [6], the “fold reduced potency relative to TAK632” value is listed as roughly 12 fold. In addition, the “melting temperature of BRAF^WT, higher transition” value at BRAF^WT [7] (75 μM inhibitor) is 58.65 °C; on BRAF^WT [7] (125 μM inhibitor), 59.6 °C; at BRAF^WT [7] (250 μM inhibitor), 62.64 °C. In addition, the “trypsin digestion pattern of BRAF^WT” value on BRAF^WT [2] was “digestion pattern resembling that of unliganded BRAF^WT”.
On to `N#Cc1c(Oc2ccc(F)c(NC(=O)Cc3cccc(C(F)(F)F)c3)c2)ccc2nc(NC(=O)COCCOCCOCC(=O)Nc3nccs3)sc12` [TAK-L-C], for which the “fold reduced potency relative to TAK632” value at BRAF^WT [6] is listed as roughly 4 fold. The “trypsin digestion pattern of BRAF^WT” value at BRAF^WT [2] was “species A becomes a minor band, while species B and C become major bands”.
